In one data set the test system is erythrocyte membranes. Description: Tests of transport across erythrocyte membranes. Format: cell-based.
The test system of a further data set is HbS. Description: Chromatographic separation: covalent binding to HbS.
The next data set has as its target sickle hemoglobin (HbS) (Homo sapiens, UniProt P68871+P69905, E7V). As to the kind of experiment: solubility or Csat assay: solubility of deoxygenated sickle hemoglobin (Hofrichter et al.). Format: biochemical. Conditions: low concentrations (5 mM); versus dichlorobenzyloxyacetic acid and p-bromobenzyloxyacetic acid. From the text:
One major assay for evaluating antisickling agents involves measuring their effect on increasing the concentration at which sickle hemoglobin forms a gel. This is called the solubility or Csat assay.
The solubility assay (Csat assay) measures the ability of a compound to increase solubility of sickle hemoglobin (HbS). […] The higher the ratio, the higher the activity of the compound.
In order to confirm the effectiveness of these compounds in reducing the effect of sickle cell anemia, tests were performed. The materials were tested according to the assay (Csat) developed by Hofrichter et al. (J. Hofrichter, P. D. Ross and W. A. Eaton, Proc. Natl. Acad. Sci., U.S.A. 73, 30-35, 1976). This assay involves deoxygenation of concentrated sickle hemoglobin with dithionite in the presence of different concentrations of the drugs being tested. Samples are then sealed in quartz epr tubes under anaerobic conditions and spun at about 150,000 g for about 21/2 hours at about 35° C. in an ultracentrifuge. This procedure pellets the polymerized HbS (sickle hemoglobin) to the bottom of the tubes and the supernatant (soluble HbS) is measured in the laboratory as the cyanmethemoglobulin derivative. […] Activity is reported as a ratio of the HbS solubility with the particular drug to HbS solubility with no drug, i.e. control. The higher the ratio the greater degree of activity of the drug. […]

Counter-ions that a name gives are not always drawn.

Experimental findings from patent US4731473A, “Compounds useful in treating sickle cell anemia” (Merck & Co., Inc., priority 1986, dated 1988) are described below.

For the compound `C=C(CC)C(=O)c1ccc(OCCCC(=O)O)c(Cl)c1Cl` [sodium salt of 4-[2,3-dichloro-4-(2-methylenebutyryl)phenoxy]butyric acid], in the data set with erythrocyte membranes, the “ability to cross the red blood cell membrane and react with hemoglobin (in words)” value is “confirmed the ability of the agent to cross the red blood cell membrane and react with hemoglobin”. For the same compound, the “covalent binding between HbS and the agent (in words)” value with HbS is “desired tight covalent binding between the HbS and the therapeutic agent had occurred”. For the same compound, the “solubility ratio compared with other antisickling agents (in words)” value at sickle hemoglobin (HbS) was “exhibited a higher solubility ratio than other antisickling agents”.
